Data: patent US12428406B2 (PMV Pharmaceuticals, Inc., priority 2019, dated 2025)

target: T1, p53 Y220C (Homo sapiens, UniProt P04637, Y220C); assay: In vitro DNA binding activity assay (HTRF / TR-FRET): stabilization of p53 Y220C and increase of its DNA binding activity; assay type: biochemical; conditions: recombinant His-tagged p53 Y220C DNA binding domain (aa 94-312), biotin-labeled consensus DNA, incubated at 27° C. or 29° C. for 60 min
T1 construct: The recombinant protein was a truncation mutant containing only amino acids 94-312 of p53; made in house; host or cells: E. coli
T1 sequence (P04637 94-312, change not shown): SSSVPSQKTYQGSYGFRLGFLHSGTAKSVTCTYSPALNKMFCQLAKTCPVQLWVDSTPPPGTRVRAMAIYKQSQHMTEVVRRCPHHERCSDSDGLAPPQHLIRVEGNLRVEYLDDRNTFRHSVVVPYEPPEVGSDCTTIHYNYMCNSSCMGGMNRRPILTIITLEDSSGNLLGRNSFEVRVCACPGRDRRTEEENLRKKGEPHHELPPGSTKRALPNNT
Summary of the method: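 E. coli His-p53 Y220C + biotin consensus DNA; anti-His-APC/SA-Eu TR-FRET. SC150 vs no-compound.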

Row | SMILES | SC150 (concentration of the compound required to increase the DNA binding activity by 50%)
1 | COc1cc(S(C)(=O)=O)ccc1NCC#Cc1cc2c(N[C@H]3CC[C@@H](N4CC5CC(C4)O5)CC3)cccc2n1CC(F)(F)F [Compound 399A, 2-{3-[(4-methanesulfonyl-2-methoxyphenyl)amino]prop-1-yn-1-yl}-N-[(1S,4S)-4-{6-oxa-3-azabicyclo[3.1.1]heptan-3-yl}cyclohexyl]-1-(2,2,2-trifluoroethyl)-1H-indol-4-amine] | + (+ = 0 μM ≤ SC150 < 0.05 μM)
2 | COc1cc(S(C)(=O)=O)ccc1NCC#Cc1cc2c(NC3CCN(CC4CCCO4)CC3)cccc2n1CC(F)(F)F (stereo not drawn) [Compound 688A, 2-{3-[(4-methanesulfonyl-2-methoxyphenyl)amino]prop-1-yn-1-yl}-N-{1-[(oxolan-2-yl)methyl]piperidin-4-yl}-1-(2,2,2-trifluoroethyl)-1H-indol-4-amine] | + (+ = 0 μM ≤ SC150 < 0.05 μM)
3 | CN(C)c1cc(S(C)(=O)=O)ccc1OCC#Cc1cc2c(N[C@H]3CC[C@H](N(C)C)CC3)cccc2n1CC(F)(F)F [Compound 112A, (1R,4R)-N^4-(2-{3-[2-(dimethylamino)-4-methanesulfonyl-phenoxy]prop-1-yn-1-yl}-1-(2,2,2-trifluoroethyl)-1H-indol-4-yl)-N^1,N^1-dimethylcyclohexane-1,4-diamine] | +++ (+++ = 0.1 μM ≤ SC150 < 0.2 μM)
4 | COc1cc(C(=O)N(C)C(C)C)ccc1NCC#Cc1cc2c(N[C@@H]3CCN(C)C[C@@H]3F)cccc2n1CC(F)(F)F [Compound 944A, 4-{[3-(4-{[(3S,4R)-3-fluoro-1-methylpiperidin-4-yl]amino}-1-(2,2,2-trifluoroethyl)-1H-indol-2-yl)prop-2-yn-1-yl]amino}-3-methoxy-N-methyl-N-(propan-2-yl)benzamide] | + (+ = 0 μM ≤ SC150 < 0.05 μM)
5 | CN1CC[C@H](Nc2cccc3c2cc(C#CCNc2ccc(S(C)(=O)=O)cc2OCF)n3CC(F)(F)F)[C@H](F)C1 [Compound 841A] | + (+ = 0 μM ≤ SC150 < 0.05 μM)
6 | CC(C)N1CCC(Nc2cccc3c2cc(C#CCNc2ccc(S(C)(=O)=O)cc2OCC#N)n3CC(F)(F)F)CC1 [Compound 540A] | + (+ = 0 μM ≤ SC150 < 0.05 μM)
7 | COCC(O)CN1CCC(Nc2cccc3c2cc(C#CCNc2ccc(C(N)=O)cc2OC)n3CC(F)(F)F)CC1 (stereo not drawn) [Compound 620A, 4-{[3-(4-{[1-(2-hydroxy-3-methoxypropyl)piperidin-4-yl]amino}-1-(2,2,2-trifluoroethyl)-1H-indol-2-yl)prop-2-yn-1-yl]amino}-3-methoxybenzamide] | + (+ = 0 μM ≤ SC150 < 0.05 μM)
8 | CNC(=O)c1ccc(NCC#Cc2cc3c(N[C@H]4CC[C@@H](N5CC6(COC6)C5)CC4)cccc3n2CC(F)(F)F)c(OCC#N)c1 [Compound 243A, 3-(cyanomethoxy)-N-methyl-4-{[3-(4-{[(1S,4S)-4-{2-oxa-6-azaspiro[3.3]heptan-6-yl}cyclohexyl]amino}-1-(2,2,2-trifluoroethyl)-1H-indol-2-yl)prop-2-yn-1-yl]amino}benzamide] | + (+ = 0 μM ≤ SC150 < 0.05 μM)
9 | COCCN(C)S(=O)(=O)c1ccc(NCC#Cc2cc3c(NC4CCN(C)CC4)cccc3n2CC(F)(F)F)c(OC)c1 [Compound 477A, 3-methoxy-N-(2-methoxyethyl)-N-methyl-4-[(3-{4-[(1-methylpiperidin-4-yl)amino]-1-(2,2,2-trifluoroethyl)-1H-indol-2-yl}prop-2-yn-1-yl)amino]benzene-1-sulfonamide] | + (+ = 0 μM ≤ SC150 < 0.05 μM)
10 | CNC(=O)c1ccc(NCC#Cc2cc3c(N[C@H]4CC[C@H](N5CCC(S(C)(=O)=O)CC5)CC4)cccc3n2CC(F)(F)F)c(OC)c1 [Compound 444A, 3-methoxy-N-methyl-4-{[3-(4-{[(1R,4R)-4-(4-methane-sulfonylpiperidin-1-yl)cyclohexyl]amino}-1-(2,2,2-trifluoroethyl)-1H-indol-2-yl)prop-2-yn-1-yl]amino}benzamide] | + (+ = 0 μM ≤ SC150 < 0.05 μM)
11 | CNC(=O)c1cc(OC)c(NCC#Cc2cc3c(N[C@H]4CC[C@H](N5CC6(CCOCC6)C5)CC4)cccc3n2CC(F)(F)F)cc1F [Compound 335A, 2-fluoro-5-methoxy-N-methyl-4-{[3-(4-{[(1R,4R)-4-{7-oxa-2-azaspiro[3.5]nonan-2-yl}cyclohexyl]amino}-1-(2,2,2-trifluoroethyl)-1H-indol-2-yl)prop-2-yn-1-yl]amino}benzamide] | + (+ = 0 μM ≤ SC150 < 0.05 μM)
12 | COCC(O)CN1CCC(Nc2cccc3c2cc(C#CCNC(=O)c2ccccc2)n3CC(F)(F)F)C1 (stereo not drawn) [Compound 456A, N-[3-(4-{[1-(2-hydroxy-3-methoxypropyl)pyrrolidin-3-yl]amino}-1-(2,2,2-trifluoroethyl)-1H-indol-2-yl)prop-2-yn-1-yl]benzamide] | ++++ (++++ = 0.2 μM ≤ SC150 < 1 μM)
13 | COCC(=O)N1CCC(Nc2cccc3c2cc(C#CCNc2ccc(S(N)(=O)=O)cc2OC)n3CC(F)(F)F)CC1 [Compound 575A] | + (+ = 0 μM ≤ SC150 < 0.05 μM)
14 | CCC(=O)N(C)S(=O)(=O)c1ccc(NCC#Cc2cc3c(NC4CCN(CC(O)COC)CC4)cccc3n2CC(F)(F)F)c(OC)c1 (stereo not drawn) [Compound 624A, N-(4-{[3-(4-{[1-(2-hydroxy-3-methoxypropyl)piperidin-4-yl]amino}-1-(2,2,2-trifluoroethyl)-1H-indol-2-yl)prop-2-yn-1-yl]amino}-3-methoxybenzenesulfonyl)-N-methylpropanamide] | + (+ = 0 μM ≤ SC150 < 0.05 μM)
15 | COCC(O)CN1CCC(Nc2cccc3c2cc(C#CCNc2ccc(S(=O)(=O)N(C)C)cc2OC)n3CC(F)(F)F)CC1 (stereo not drawn) [Compound 622A] | + (+ = 0 μM ≤ SC150 < 0.05 μM)
16 | CC(C)N1CCC(Nc2cccc3c2cc(C#CCNc2ccc(S(C)(=O)=O)cc2OCF)n3CC(F)(F)F)CC1 [Compound 541A, 2-(3-{[2-(fluoromethoxy)-4-methanesulfonylphenyl]amino}prop-1-yn-1-yl)-N-[1-(propan-2-yl)piperidin-4-yl]-1-(2,2,2-trifluoroethyl)-1H-indol-4-amine] | + (+ = 0 μM ≤ SC150 < 0.05 μM)
17 | CNC(=O)c1ccc(NCC#Cc2cc3c(N[C@H]4CC[C@H](N5CCCC5)CC4)cccc3n2CC(F)(F)F)c(OC)c1 [Compound 420A, 3-methoxy-N-methyl-4-{[3-(4-{[(1R,4R)-4-(pyrrolidin-1-yl)cyclohexyl]amino}-1-(2,2,2-trifluoroethyl)-1H-indol-2-yl)prop-2-yn-1-yl]amino}benzamide] | + (+ = 0 μM ≤ SC150 < 0.05 μM)
18 | COc1cc(S(=O)(=O)N(CCO)CCO)ccc1NCC#Cc1cc2c(NC3CCN(C)CC3)cccc2n1CC(F)(F)F [Compound 483A, N,N-bis(2-hydroxyethyl)-3-methoxy-4-[(3-{4-[(1-methylpiperidin-4-yl)amino]-1-(2,2,2-trifluoroethyl)-1H-indol-2-yl}prop-2-yn-1-yl)amino]benzene-1-sulfonamide] | + (+ = 0 μM ≤ SC150 < 0.05 μM)
19 | CN(C)[C@H]1CC[C@H](Nc2cccc3c2cc(C#CCNc2ccc(S(C)(=O)=O)cc2O)n3CC(F)(F)F)CC1 [Compound 80A, 5-methanesulfonyl-2-{[3-(4-{[(1S,4S)-4-(dimethylamino)cyclohexyl]amino}-1-(2,2,2-trifluoroethyl)-1H-indol-2-yl)prop-2-yn-1-yl]amino}phenol] | + (+ = 0 μM ≤ SC150 < 0.05 μM)
20 | CCN1CC[C@@H](Nc2cccc3c2cc(C#CCNc2ccc(S(C)(=O)=O)cc2OC)n3CC(F)(F)F)[C@@H](F)C1 [Compound 812A] | + (+ = 0 μM ≤ SC150 < 0.05 μM)
21 | COc1cc(C(N)=O)ccc1NCC#Cc1cc2c(N[C@H]3CC[C@H](N4CC5(COC5)C4)CC3)cccc2n1CC(F)(F)F [Compound 212A, 3-methoxy-4-{[3-(4-{[(1R,4R)-4-{2-oxa-6-azaspiro[3.3]heptan-6-yl}cyclohexyl]amino}-1-(2,2,2-trifluoroethyl)-1H-indol-2-yl)prop-2-yn-1-yl]amino}benzamide] | + (+ = 0 μM ≤ SC150 < 0.05 μM)
22 | CS(=O)(=O)c1ccc(NCC#Cc2cc3c(N[C@H]4CC[C@@H](N5CC6(CCOCC6)C5)CC4)cccc3n2CC(F)(F)F)c(OCC#N)c1 [Compound 304A, 2-(5-methanesulfonyl-2-{[3-(4-{[(1S,4S)-4-{7-oxa-2-azaspiro[3.5]nonan-2-yl}cyclohexyl]amino}-1-(2,2,2-trifluoroethyl)-1H-indol-2-yl)prop-2-yn-1-yl]amino}phenoxy)acetonitrile] | + (+ = 0 μM ≤ SC150 < 0.05 μM)
23 | COc1cc(C(=O)N2CCC(N(C)C)CC2)ccc1NCC#Cc1cc2c(N[C@@H]3CCN(C)C[C@@H]3F)cccc2n1CC(F)(F)F [Compound 933A, 2-[3-({4-[4-(dimethylamino)piperidine-1-carbonyl]-2-methoxyphenyl}amino)prop-1-yn-1-yl]-N-[(3S,4R)-3-fluoro-1-methylpiperidin-4-yl]-1-(2,2,2-trifluoroethyl)-1H-indol-4-amine] | + (+ = 0 μM ≤ SC150 < 0.05 μM)
24 | CNc1cc(S(C)(=O)=O)ccc1OCC#Cc1cc2c(N[C@H]3CC[C@@H](N(C)C)CC3)cccc2n1CC(F)(F)F [Compound 108A, (1S,4S)-N^4-(2-{3-[4-methanesulfonyl-2-(methylamino)phenoxy]prop-1-yn-1-yl}-1-(2,2,2-trifluoroethyl)-1H-indol-4-yl)-N^1,N^1-dimethylcyclohexane-1,4-diamine] | ++ (++ = 0.05 μM ≤ SC150 < 0.1 μM)
